Results on 1 molecule are retold here after PMC3152332 (Nucleic Acids Research, 2011).

One assay concerns the target Ec-Mtq2-Trm112 (Encephalitozoon cuniculi, UniProt Q8SRR4). The settings on record: SAM co-purified with the complex; contacts only Mtq2 residues.
In another assay the target is Hs-Mtq2 + Hs-Trm112 (Homo sapiens, UniProt Q9Y5N5). The settings on record: labelled compound; with Hs-Trm112; methylation buffer, 30 °C, 15 min.
A further assay deals with yeast Mtq2-Trm112 (Saccharomyces cerevisiae, UniProt Q03920). Conditions: labelled compound; eRF1, eRF3 and GTP present.
yeast Mtq2-Trm112, sequence (Q03920 whole entry): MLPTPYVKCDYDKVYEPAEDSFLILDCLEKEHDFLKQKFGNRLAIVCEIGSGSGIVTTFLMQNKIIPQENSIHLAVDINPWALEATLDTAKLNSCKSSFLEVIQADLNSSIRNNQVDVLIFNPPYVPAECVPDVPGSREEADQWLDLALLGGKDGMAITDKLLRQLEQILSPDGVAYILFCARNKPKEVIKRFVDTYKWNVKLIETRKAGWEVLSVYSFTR
yeast Mtq2-Trm112, sequence (P53738 whole entry partner): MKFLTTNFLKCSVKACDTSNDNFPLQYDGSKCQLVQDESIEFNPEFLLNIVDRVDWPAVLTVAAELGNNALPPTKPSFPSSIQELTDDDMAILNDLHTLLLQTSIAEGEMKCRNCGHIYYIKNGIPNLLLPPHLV

Hs-Mtq2 + Hs-Trm112, sequence (Q9Y5N5 whole entry): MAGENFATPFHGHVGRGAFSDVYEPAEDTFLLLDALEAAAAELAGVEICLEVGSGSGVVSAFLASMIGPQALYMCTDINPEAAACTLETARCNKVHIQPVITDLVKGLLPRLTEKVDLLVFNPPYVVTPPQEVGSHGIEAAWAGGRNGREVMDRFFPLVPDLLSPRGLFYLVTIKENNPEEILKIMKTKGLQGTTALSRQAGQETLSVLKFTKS
Hs-Mtq2 + Hs-Trm112, sequence (Q9UI30 whole entry partner): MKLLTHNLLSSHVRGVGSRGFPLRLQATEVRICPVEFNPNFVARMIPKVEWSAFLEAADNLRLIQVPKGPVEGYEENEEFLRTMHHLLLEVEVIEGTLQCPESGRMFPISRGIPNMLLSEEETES
Ec-Mtq2-Trm112, sequence (Q8SRR4 1-164): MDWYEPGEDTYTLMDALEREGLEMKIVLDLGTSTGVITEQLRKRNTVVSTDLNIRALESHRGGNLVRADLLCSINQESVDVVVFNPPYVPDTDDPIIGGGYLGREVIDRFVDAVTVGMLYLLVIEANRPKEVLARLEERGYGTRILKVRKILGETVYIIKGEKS
Ec-Mtq2-Trm112, sequence (Q8SUP0 1-125 partner): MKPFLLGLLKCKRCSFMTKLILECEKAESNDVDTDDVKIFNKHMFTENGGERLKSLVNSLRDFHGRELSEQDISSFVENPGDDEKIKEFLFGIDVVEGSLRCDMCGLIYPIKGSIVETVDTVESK

Turning to `C[S+](CC[C@H](N)C(=O)O)C[C@H]1O[C@@H](n2cnc3c(N)ncnc32)[C@H](O)[C@@H]1O` (stereo partly drawn) [SAM], at Ec-Mtq2-Trm112, the “X-ray crystal structure, 2.1 Å” value was “an unambiguous electron density corresponding to a SAM molecule is present in its expected binding site”. The SAM-binding activity entry on Hs-Mtq2 + Hs-Trm112 is given as “Incubation of this protein with an equimolar amount of Hs-Trm112 resulted in restoration of SAM-binding activity”. Further, at yeast Mtq2-Trm112, the “[3H]SAM methylation of eRF1, initial velocity” value is “incubating eRF1, eRF3 and GTP with Mtq2-Trm112 complex in presence of [3H] SAM”.
